Source: US20120029187A1, “HALOALKYLSULFONANILIDE DERIVATIVE” (Nissan Chemical Industries, Ltd., priority 2009, published 2012)

Legend:
Type in all cases: in vivo
common ragweed [1] = experiment: Test Example 3: herbicidal effects in soil treatment; settings: dose 3.2 g/a
Outline: (§1)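 Seeds were sown in sterilized diluvial soil and covered with about 1.5 cm of soil. Compounds, formulated as emulsifiable concentrates and diluted with water, were sprayed evenly over the soil surface at set doses in g/a. Herbicidal effect was scored on a rating scale three weeks later.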

redroot pigweed [2] = experiment: as above; settings: dose 3.2 g/a
Outline: as §1

water foxtail [3] = experiment: as above; settings: dose 3.2 g/a
Outline: as §1

velvetleaf [4] = experiment: as above; settings: dose 3.2 g/a
Outline: as §1

giant foxtail [5] = experiment: as above; settings: dose 3.2 g/a
Outline: as §1

beadstraw [6] = experiment: as above; settings: dose 3.2 g/a
Outline: as §1

Italian ryegrass [7] = experiment: as above; settings: dose 3.2 g/a
Outline: as §1

common chickweed [8] = experiment: as above; settings: dose 3.2 g/a
Outline: as §1

common lambsquater [9] = experiment: as above; settings: dose 3.2 g/a
Outline: as §1

posumbu knotweed [10] = experiment: as above; settings: dose 3.2 g/a
Outline: as §1

large crabgrass [11] = experiment: as above; settings: dose 3.2 g/a
Outline: as §1

barnyardgrass [12] = experiment: as above; settings: dose 3.2 g/a
Outline: as §1

common ragweed [13] = experiment: Test Example 4: herbicidal effect in foliage treatment; settings: dose 3.2 g/a
Outline: (§2)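 Seeds were spot-sown in boxes of sterilized diluvial soil and raised in a greenhouse (25 to 30° C) for 14 days before a single foliar application. Compounds were applied as emulsifiable concentrates diluted with water, at predetermined doses in g/a. Injury was graded three weeks post-spray.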

redroot pigweed [14] = experiment: as above; settings: dose 3.2 g/a
Outline: as §2

water foxtail [15] = experiment: as above; settings: dose 3.2 g/a
Outline: as §2

velvetleaf [16] = experiment: as above; settings: dose 3.2 g/a
Outline: as §2

giant foxtail [17] = experiment: as above; settings: dose 3.2 g/a
Outline: as §2

beadstraw [18] = experiment: as above; settings: dose 3.2 g/a
Outline: as §2

Italian ryegrass [19] = experiment: as above; settings: dose 3.2 g/a
Outline: as §2

common chickweed [20] = experiment: as above; settings: dose 3.2 g/a
Outline: as §2

common lambsquater [21] = experiment: as above; settings: dose 3.2 g/a
Outline: as §2

posumbu knotweed [22] = experiment: as above; settings: dose 3.2 g/a
Outline: as §2

large crabgrass [23] = experiment: as above; settings: dose 3.2 g/a
Outline: as §2

barnyardgrass [24] = experiment: as above; settings: dose 3.2 g/a
Outline: as §2

transplanted rice = experiment: Test Example 1: preemergence treatment under submerged conditions, effect on crop; settings: dose 2.52 g/a
Outline: (§3)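 Scoring 0 (<5% mortality) to 5 (≥90%) was done three weeks after preemergence application to the water surface of submerged (4 cm) alluvial soil, doses given as g per are. Weeds were seeded and 2.5-leaf rice transplanted on the treatment day; greenhouse at 25–30 °C.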

bulrush [25] = experiment: Test Example 1: herbicidal effects in preemergence treatment under submerged conditions; settings: dose 2.52 g/a
Outline: as §3

barnyardgrass [26] = experiment: as above; settings: dose 2.52 g/a
Outline: as §3

ducksalad [27] = experiment: as above; settings: dose 2.52 g/a
Outline: as §3

bulrush [28] = experiment: Test Example 2: herbicidal effects during the vegetation period under submerged conditions; settings: treatment during the vegetation period under submerged conditions; dose 2.52 g/a
Outline: (§4)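 Barnyardgrass, bulrush and ducksalad were co-sown in alluvial soil flooded to 4 cm and grown in a greenhouse at 25 to 30° C. At the 1- or 2-leaf stage, water-diluted emulsifiable concentrates went onto the water surface at set doses (g/a). Herbicidal effect was scored three weeks later on a graded scale.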

barnyardgrass [29] = experiment: as above; settings: treatment during the vegetation period under submerged conditions; dose 2.52 g/a
Outline: as §4

ducksalad [30] = experiment: as above; settings: treatment during the vegetation period under submerged conditions; dose 2.52 g/a
Outline: as §4

[31] = three weeks after the application

## CCC1CON(Cc2ccccc2NS(=O)(=O)C(F)(F)F)C(=O)O1 (centres unmarked) [III-5]
Common ragweed [1]
  herbicidal effect, J: common ragweed: 4 (mortality of at least 70% and less than 90%)
Redroot pigweed [2]
  herbicidal effect, K: redroot pigweed: 0 (mortality of less than 5% (almost ineffective))
Water foxtail [3]
  herbicidal effect, G: water foxtail: 5 (mortality of 90% or above (nearly complete death))
Velvetleaf [4]
  herbicidal effect, I: velvetleaf: 5 (mortality of 90% or above (nearly complete death))
Giant foxtail [5]
  herbicidal effect, E: giant foxtail: 5 (mortality of 90% or above (nearly complete death))
Beadstraw [6]
  herbicidal effect, O: beadstraw: 4 (mortality of at least 70% and less than 90%)
Italian ryegrass [7]
  herbicidal effect, H: Italian ryegrass: 5 (mortality of 90% or above (nearly complete death))
Common chickweed [8]
  herbicidal effect, N: common chickweed: 5 (mortality of 90% or above (nearly complete death))
Common lambsquater [9]
  herbicidal effect, L: common lambsquater: 5 (mortality of 90% or above (nearly complete death))
Posumbu knotweed [10]
  herbicidal effect, M: posumbu knotweed: 4 (mortality of at least 70% and less than 90%)
Large crabgrass [11]
  herbicidal effect, D: large crabgrass: 5 (mortality of 90% or above (nearly complete death))
Barnyardgrass [12]
  herbicidal effect, A: barnyardgrass: 5 (mortality of 90% or above (nearly complete death))
Common ragweed [13]; [31]
  J: common ragweed, herbicidal effect: 4 (mortality of at least 70% and less than 90%)
Redroot pigweed [14]; [31]
  K: redroot pigweed, herbicidal effect: 0 (mortality of less than 5% (almost ineffective))
Water foxtail [15]; [31]
  G: water foxtail, herbicidal effect: 5 (mortality of 90% or above (nearly complete death))
Velvetleaf [16]; [31]
  I: velvetleaf, herbicidal effect: 3 (mortality of at least 40% and less than 70%)
Giant foxtail [17]; [31]
  E: giant foxtail, herbicidal effect: 3 (mortality of at least 40% and less than 70%)
Beadstraw [18]; [31]
  O: beadstraw, herbicidal effect: 3 (mortality of at least 40% and less than 70%)
Italian ryegrass [19]; [31]
  H: Italian ryegrass, herbicidal effect: 1 (mortality of at least 5% and less than 20%)
Common chickweed [20]; [31]
  N: common chickweed, herbicidal effect: 3 (mortality of at least 40% and less than 70%)
Common lambsquater [21]; [31]
  L: common lambsquater, herbicidal effect: 3 (mortality of at least 40% and less than 70%)
Posumbu knotweed [22]; [31]
  M: posumbu knotweed, herbicidal effect: 0 (mortality of less than 5% (almost ineffective))
Large crabgrass [23]; [31]
  D: large crabgrass, herbicidal effect: 0 (mortality of less than 5% (almost ineffective))
Barnyardgrass [24]; [31]
  A: barnyardgrass, herbicidal effect: 5 (mortality of 90% or above (nearly complete death))
Transplanted rice
  a: transplanted rice, effect on crop (evaluation scale 0-5): 0 (mortality of less than 5% (almost ineffective))
Bulrush [25]
  B: bulrush, herbicidal effect (evaluation scale 0-5): 5 (mortality of 90% or above (nearly complete death))
Barnyardgrass [26]
  A: barnyardgrass, herbicidal effect (evaluation scale 0-5): 5 (mortality of 90% or above (nearly complete death))
Ducksalad [27]
  C: ducksalad, herbicidal effect (evaluation scale 0-5): 5 (mortality of 90% or above (nearly complete death))
Bulrush [28]
  B: bulrush, herbicidal effect (evaluation scale 0-5): 5 (mortality of 90% or above (nearly complete death))
Barnyardgrass [29]
  A: barnyardgrass, herbicidal effect (evaluation scale 0-5): 5 (mortality of 90% or above (nearly complete death))
Ducksalad [30]
  C: ducksalad, herbicidal effect (evaluation scale 0-5): 5 (mortality of 90% or above (nearly complete death))

## COCC1(C)CC(=O)N(Cc2ccccc2N(C(=O)OCC(C)C)S(=O)(=O)C(F)(F)F)CO1 (centres unmarked) [II-56]
Common ragweed [1]
  J: common ragweed, herbicidal effect (evaluation scale 0-5): 4 (mortality of at least 70% and less than 90%)
Redroot pigweed [2]
  K: redroot pigweed, herbicidal effect (evaluation scale 0-5): 2 (mortality of at least 20% and less than 40%)
Water foxtail [3]
  G: water foxtail, herbicidal effect (evaluation scale 0-5): 5 (mortality of 90% or above (nearly complete death))
Velvetleaf [4]
  I: velvetleaf, herbicidal effect (evaluation scale 0-5): 5 (mortality of 90% or above (nearly complete death))
Giant foxtail [5]
  E: giant foxtail, herbicidal effect (evaluation scale 0-5): 5 (mortality of 90% or above (nearly complete death))
Beadstraw [6]
  O: beadstraw, herbicidal effect (evaluation scale 0-5): 0 (mortality of less than 5% (almost ineffective))
Italian ryegrass [7]
  H: Italian ryegrass, herbicidal effect (evaluation scale 0-5): 5 (mortality of 90% or above (nearly complete death))
Common chickweed [8]
  N: common chickweed, herbicidal effect (evaluation scale 0-5): 5 (mortality of 90% or above (nearly complete death))
Common lambsquater [9]
  L: common lambsquater, herbicidal effect (evaluation scale 0-5): 3 (mortality of at least 40% and less than 70%)
Posumbu knotweed [10]
  M: posumbu knotweed, herbicidal effect (evaluation scale 0-5): 3 (mortality of at least 40% and less than 70%)
Large crabgrass [11]
  D: large crabgrass, herbicidal effect (evaluation scale 0-5): 4 (mortality of at least 70% and less than 90%)
Barnyardgrass [12]
  A: barnyardgrass, herbicidal effect (evaluation scale 0-5): 5 (mortality of 90% or above (nearly complete death))
Common ragweed [13]; three weeks after application
  J: common ragweed, herbicidal effect: 4 (mortality of at least 70% and less than 90%)
Redroot pigweed [14]; three weeks after application
  K: redroot pigweed, herbicidal effect: 2 (mortality of at least 20% and less than 40%)
Water foxtail [15]; three weeks after application
  G: water foxtail, herbicidal effect: 5 (mortality of 90% or above (nearly complete death))
Velvetleaf [16]; three weeks after application
  I: velvetleaf, herbicidal effect: 5 (mortality of 90% or above (nearly complete death))
Giant foxtail [17]; three weeks after application
  E: giant foxtail, herbicidal effect: 4 (mortality of at least 70% and less than 90%)
Beadstraw [18]; three weeks after application
  O: beadstraw, herbicidal effect: 3 (mortality of at least 40% and less than 70%)
Italian ryegrass [19]; three weeks after application
  H: Italian ryegrass, herbicidal effect: 3 (mortality of at least 40% and less than 70%)
Common chickweed [20]; three weeks after application
  N: common chickweed, herbicidal effect: 4 (mortality of at least 70% and less than 90%)
Common lambsquater [21]; three weeks after application
  L: common lambsquater, herbicidal effect: 3 (mortality of at least 40% and less than 70%)
Posumbu knotweed [22]; three weeks after application
  M: posumbu knotweed, herbicidal effect: 0 (mortality of less than 5% (almost ineffective))
Large crabgrass [23]; three weeks after application
  D: large crabgrass, herbicidal effect: 0 (mortality of less than 5% (almost ineffective))
Barnyardgrass [24]; three weeks after application
  A: barnyardgrass, herbicidal effect: 5 (mortality of 90% or above (nearly complete death))
Transplanted rice
  a: transplanted rice, effect on crop (evaluation scale 0-5): 0 (mortality of less than 5% (almost ineffective))
Bulrush [25]
  B: bulrush, herbicidal effect (evaluation scale 0-5): 5 (mortality of 90% or above (nearly complete death))
Barnyardgrass [26]
  A: barnyardgrass, herbicidal effect (evaluation scale 0-5): 5 (mortality of 90% or above (nearly complete death))
Ducksalad [27]
  C: ducksalad, herbicidal effect (evaluation scale 0-5): 5 (mortality of 90% or above (nearly complete death))
Bulrush [28]
  B: bulrush, herbicidal effect (evaluation scale 0-5): 5 (mortality of 90% or above (nearly complete death))
Barnyardgrass [29]
  A: barnyardgrass, herbicidal effect (evaluation scale 0-5): 5 (mortality of 90% or above (nearly complete death))
Ducksalad [30]
  C: ducksalad, herbicidal effect (evaluation scale 0-5): 5 (mortality of 90% or above (nearly complete death))
